# Target: T1, OXA-57 (Burkholderia pseudomallei, UniProt Q6ZZZ2)
# Test: not given
# Details: not given
# T1 sequence (Q6ZZZ2 24-269 limits assumed): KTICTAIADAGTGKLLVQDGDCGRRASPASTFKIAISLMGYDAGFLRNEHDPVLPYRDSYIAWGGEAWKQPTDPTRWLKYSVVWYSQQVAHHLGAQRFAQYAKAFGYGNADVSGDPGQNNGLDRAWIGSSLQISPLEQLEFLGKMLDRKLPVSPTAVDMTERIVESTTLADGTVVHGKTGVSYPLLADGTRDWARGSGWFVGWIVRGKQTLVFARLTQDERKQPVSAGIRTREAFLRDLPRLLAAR
row,SMILES,Ki
1,CC(=O)OCC1=C(C(=O)O)N2C(=O)[C@@H](NC(=O)Cc3cccs3)[C@H]2SC1 [Cephalothin],405 ± 97 µM
2,C[C@@H](O)[C@H]1C(=O)N2C(C(=O)O)=C(SCCN=CN)C[C@H]12 [Imipenem],265 ± 79 µM
3,C[C@@H](O)[C@H]1C(=O)N2C(C(=O)O)=C(S[C@@H]3CN[C@H](C(=O)N(C)C)C3)[C@H](C)[C@H]12 [Meropenem],646 ± 355 µM

# Target: T1, OXA-57
# Test: biochemical
# Details: not given
row,SMILES,IC50
1,C[C@H]1[C@H](NC(=O)/C(=N\OC(C)(C)C(=O)O)c2csc(N)n2)C(=O)N1S(=O)(=O)O [Aztreonam],> 3980 µM
2,CO/N=C(\C(=O)N[C@@H]1C(=O)N2C(C(=O)O)=C(COC(C)=O)CS[C@H]12)c1csc(N)n1 [Cefotaxime],> 3980 µM
3,CC(C)(O/N=C(\C(=O)N[C@@H]1C(=O)N2C(C(=O)[O-])=C(C[n+]3ccccc3)CS[C@H]12)c1csc(N)n1)C(=O)O [Ceftazidime],> 3980 µM
4,O=C(O)[C@H]1/C(=C/CO)O[C@@H]2CC(=O)N21 [Clavulanate],9.4 µM
5,O=C(O)C[C@@H]1CC[C@H](NC(=O)Cc2cccs2)B(O)O1 [Vaborbactam],> 3980 µM

# Target: T1, OXA-57
# Test: biochemical
# Details: pIC50
row,SMILES,IC50
1,O=C(O)[C@H]1/C(=C/CO)O[C@@H]2CC(=O)N21 [Clavulanate],12.6 µM
